In the data set the test system is rodent carcinogenicity bioassays, tumor incidence. Kind of data set: CCRIS carcinogenicity studies. The text has this: The CCRIS database contains chemical records with carcinogenicity, mutagenicity, tumor promotion, and tumor inhibition test results. It was developed by the National Cancer Institute (NCI). Data are derived from studies cited in primary journals, current awareness tools, NCI reports, and other sources. Test results have been reviewed by experts in carcinogenesis and mutagenesis.
CCRIS provides historical information from the years 1985 - 2011. It is no longer updated.
This is an archive assay for CCRIS carcinogenicity studies.

Activity calls are given as the source filed them. The rule behind the calls is not given here.

Consider `CCCCCCCCCCCC(=O)N(CCO)CCO`, for which the carcinogen call was “equivocal” (Species: MOUSE, Strain/Sex: B6C3F1/FEMALE, Route: DERMAL, Dose: 0, 100, 200 MG/KG BW IN ETHANOL FOR 105 WK (STUDY DURATION: 105 WK), Dose: 0, 100, 200 MG/KG BW IN ETHANOL FOR 105 WK (STUDY DURATION: 105 WK), Tumor Site: Type of Lesion: LIVER: HEPATOCELLULAR ADENOMA, HEPATOCELLULAR ADENOMA OR CARCINOMA, HEPATOCELLULAR CARCINOMA OR HEPATOBLASTOMA, HEPATOCE); “inactive; negative” (Species: MOUSE, Strain/Sex: B6C3F1/MALE, Route: DERMAL, Dose: 0, 100, 200 MG/KG BW IN ETHANOL FOR 105 WK (STUDY DURATION: 105 WK), Dose: 0, 100, 200 MG/KG BW IN ETHANOL FOR 105 WK (STUDY DURATION: 105 WK)); “inactive; negative” (Species: RAT, Strain/Sex: F344/N/FEMALE, Route: DERMAL, Dose: 0, 50, 100 MG/KG BW IN ETHANOL FOR 105 WK (STUDY DURATION: 105 WK), Dose: 0, 50, 100 MG/KG BW IN ETHANOL FOR 105 WK (STUDY DURATION: 105 WK)); “inactive; negative” (Species: RAT, Strain/Sex: F344/N/MALE, Route: DERMAL, Dose: 0, 50, 100 MG/KG BW IN ETHANOL FOR 104 WK (STUDY DURATION: 104 WK), Dose: 0, 50, 100 MG/KG BW IN ETHANOL FOR 104 WK (STUDY DURATION: 104 WK)).
`Oc1cc2c(c3ccc4ccccc4c13)CCC2`: the carcinogen call (Species: MOUSE, Strain/Sex: TO/MALE, FEMALE, Route: DERMAL, Dose: 0, 50 UG (10 µL OF A 0.5% W/V TOLUENE SOLUTION) 2/WK FOR 70 WK (STUDY DURATION: 70 WK), Tumor Site: Type of Lesion: SKIN: PAPILLOMA OR CARCINOMA) is “active; positive”.
With `CCCCCCCC/C=C\CCCCCCCC(=O)O`, the carcinogen call was “inactive; negative” (Species: MOUSE, Strain/Sex: B6C3F1/FEMALE, Route: ORAL, Dose: 0, 0.25, 1.0% IN DRINKING WATER FOR 96 WK (STUDY DURATION: 104 WK), Dose: 0, 0.25, 1.0% IN DRINKING WATER FOR 96 WK (STUDY DURATION: 104 WK)); “inactive; negative” (Species: MOUSE, Strain/Sex: B6C3F1/MALE, Route: ORAL, Dose: 0, 0.25, 1.0% IN DRINKING WATER FOR 96 WK (STUDY DURATION: 104 WK), Dose: 0, 0.25, 1.0% IN DRINKING WATER FOR 96 WK (STUDY DURATION: 104 WK)); “inactive; negative” (Species: RAT, Strain/Sex: F344/FEMALE, Route: ORAL, Dose: 0, 2.5, 5% IN DRINKING WATER FOR 108 WK (STUDY DURATION: 2 YR), Dose: 0, 2.5, 5% IN DRINKING WATER FOR 108 WK (STUDY DURATION: 2 YR)); “inactive; negative” (Species: RAT, Strain/Sex: F344/MALE, Route: ORAL, Dose: 0, 2.5, 5% IN DRINKING WATER FOR 108 WK (STUDY DURATION: 2 YR), Dose: 0, 2.5, 5% IN DRINKING WATER FOR 108 WK (STUDY DURATION: 2 YR)).
On to `C[C@H]1CCCC(=O)CCC/C=C/c2cc(O)cc(O)c2C(=O)O1`, for which the carcinogen call was “active; positive” (Species: MOUSE, Strain/Sex: B6C3F1/FEMALE, Route: ORAL, Dose: 0, 50, 100 PPM IN DIET, Dose: 0, 50, 100 PPM IN DIET, Tumor Site: Type of Lesion: LIVER: HEPATOCELLULAR ADENOMA, CARCINOMA, PITUITARY GLAND: ADENOMA, CARCINOMA); “active; positive” (Species: MOUSE, Strain/Sex: B6C3F1/MALE, Route: ORAL, Dose: 0, 50, 100 PPM IN DIET, Dose: 0, 50, 100 PPM IN DIET, Tumor Site: Type of Lesion: PITUITARY GLAND: ADENOMA, CARCINOMA); “inactive; negative” (Species: RAT, Strain/Sex: F344/FEMALE, Route: ORAL, Dose: 0, 25, 50 PPM IN DIET, Dose: 0, 25, 50 PPM IN DIET); “inactive; negative” (Species: RAT, Strain/Sex: F344/MALE, Route: ORAL, Dose: 0, 25, 50 PPM IN DIET, Dose: 0, 25, 50 PPM IN DIET).
Turning to `CC(=O)Nc1cc(NS(=O)(=O)C(F)(F)F)c(C)cc1C`, the carcinogen call was “inactive; negative” (Species: Mouse, Strain/Sex: Strain not specified by Department of Pesticide Regulation/Female (60/Group), Route: Oral, Dose: 0, 600, 1800, 6000 ppm of 93% mefluidide in diet for 18-19 mo, study duration 19 mo, Dose: 0, 600, 1800, 6000 ppm of 93% mefluidide in diet for 18-19 mo, study duration 19 mo) and “inactive; negative” (Species: Mouse, Strain/Sex: Strain not specified by Department of Pesticide Regulation/Male (60/Group), Route: Oral, Dose: 0, 600, 1800, 6000 ppm of 93% mefluidide in diet for 18-19 mo, study duration 19 mo, Dose: 0, 600, 1800, 6000 ppm of 93% mefluidide in diet for 18-19 mo, study duration 19 mo).
`CSC1=N[C@@](C)(c2ccccc2)C(=O)N1Nc1ccccc1`: the carcinogen call is, setting by setting: (Species: Mouse, Strain/Sex: C57BL/10JfCD-1 Alpk/Female (55/Group), Route: Oral, Dose: 0, 70, 350, 3500, 7000 ppm (0; 12.6; 63.8; 690.5; 1393.2 mg/kg/d) for 80 wks, study duration 80 wks, Dose: 0, 70, 350, 3500, 7000 ppm (0; 12.6; 63.8; 690.5; 1393.2 mg/kg/d) for 80 wks, study duration 80 wks) “inactive; negative”; (Species: Mouse, Strain/Sex: C57BL/10JfCD-1 Alpk/Male (55/Group), Route: Oral, Dose: 0, 70, 350, 3500, 7000 ppm (0; 9.5; 47.5; 525.5; 1100.2 mg/kg/d) for 80 wks, study duration 80 wks, Dose: 0, 70, 350, 3500, 7000 ppm (0; 9.5; 47.5; 525.5; 1100.2 mg/kg/d) for 80 wks, study duration 80 wks) “inactive; negative”; (Species: Rat, Strain/Sex: Sprague-Dawley/Female (70/Group), Route: Oral, Dose: 0, 60, 150, 1000 ppm (0; 3.63; 9.24; 60.93 mg/kg/day) in diet for 104 wks, study duration 104 wks, Dose: 0, 60, 150, 1000 ppm (0; 3.63; 9.24; 60.93 mg/kg/day) in diet for 104 wks, study duration 104 wks) “inactive; negative”; (Species: Rat, Strain/Sex: Sprague-Dawley/Female (70/Group), Route: Oral, Dose: 0, 5000 ppm in diet for 104 wks, study duration 104 wks, Dose: 0, 5000 ppm in diet for 104 wks, study duration 104 wks) “inactive; negative”; (Species: Rat, Strain/Sex: Sprague-Dawley/Male (70/Group), Route: Oral, Dose: 0, 60, 150, 1000 ppm (0; 2.83; 7.07; 47.68 mg/kg/day) in diet for 104 wks, study duration 104 wks, Dose: 0, 60, 150, 1000 ppm (0; 2.83; 7.07; 47.68 mg/kg/day) in diet for 104 wks, study duration 104 wks) “inactive; negative”; (Species: Rat, Strain/Sex: Sprague-Dawley/Male (70/Group), Route: Oral, Dose: 0, 5000 ppm in diet for 104 wks, study duration 104 wks, Dose: 0, 5000 ppm in diet for 104 wks, study duration 104 wks) “inactive; negative”.
For the compound `CCOC(=O)NO`, the carcinogen call by setting is: (Species: MOUSE, Strain/Sex: C57BL, Route: INTRAPERITONEAL, Dose: 1.18 MG/G 10X AT WEEKLY INTERVALS, Tumor Site: Type of Lesion: THYMUS GLAND: LYMPHOSARCOMA, LUNG: ADENOMA) “active; positive”; (Species: MOUSE, Strain/Sex: STRAIN-A/FEMALE, Route: INTRAPERITONEAL, Dose: 4000 NMOL/G, Tumor Site: Type of Lesion: LUNG: ADENOMA) “active; positive”.
`CC(C)CCC[C@@H](C)[C@H]1CC[C@H]2[C@@H]3C[C@H]4O[C@]45C[C@@H](O)CC[C@]5(C)[C@H]3CC[C@]12C`: where the note is “Species: RAT, Strain/Sex: STRAIN-CD/FEMALE, Route: INJECTION, Dose: 0, 12.3 UMOL (TOTAL DOSE) 1/6 INJECTED UNDER EACH OF 3 THORACIC AND 3 INGUINAL NIPPLES ONCE (STUDY DURATION: 44 WK)”, the carcinogen call was “inactive; negative”.
With `O=C(O)[C@@H]1[C@H](C(=O)O)[C@H]2CC[C@@H]1O2`, the carcinogen call was “active; positive (results not described separately for each sex)” (Species: Mouse, Strain/Sex: Crl, CD-1(ICR)BR/Male and female (60/Group), Route: Oral, Dose: 0, 750, 1500 ppm of endothal disodium, purity 19-23.1%, in diet for at least 78 wk, study duration 18 mo, Dose: 0, 750, 1500 ppm of endothal disodium, purity 19-23.1%, in diet for at least 78 wk, study duration 18 mo, Tumor Site: Type of Lesion: Duodenum and jejunum: increased incidence of tumors in high dose group); “active; positive (ca department of pesticide regulation evaluator described as a possibl” (Species: Rat, Strain/Sex: Cr, CD(SD)BR/Female (62/group), Route: Oral, Dose: Nominal concentrations of 0, 300, 900, 1800 ppm in diet for 104 wk, study duration 104 wk (actual concentration about 18, 300, 900, Tumor Site: Type of Lesion: Uterus: endometrial stromal tumors (0, 0, 4/60, 5/59)); “inactive; negative” (Species: Rat, Strain/Sex: Cr, CD(SD)BR/Male (62/group), Route: Oral, Dose: Nominal concentrations of 0, 300, 900, 1800 ppm in diet for 104 wk, study duration 104 wk (actual concentration about 18, 300, 900).

Source of the values: PubChem BioAssay AID1259411 (Chemical Carcinogenesis Research Information System (CCRIS), 2018).
